Measured values taken from patent US5952390A, “10-substituted 1,8-dihydroxy-9(10H) anthracenone pharmaceuticals” (Teva Pharmaceutical Industries Ltd., priority 1998, dated 1999).
Like-named read-outs stand apart in the source and are kept apart here.

Assays:
[1] = Degradation of 2-deoxy-D-ribose (hydroxyl radical formation); details: Table I (Addendum); controls: <0.1; 75 μM compound per method
Method: This assay followed generally the procedures of Gutteridge, J. M. C., "Reactivity of Hydroxyl and Hydroxyl-Like Radicals Discriminated by Release of Thiobarbituric Acid-Reactive Material from Deoxy Sugars, Nucleosides and Benzoate", Biochem. J., 224, 761-767 (1984) and of Laughton, M. J. et al., "Antioxidant and Prooxidant Actions of the Plant Phenolics Quercetin, Gossypol and Myricetin", Biochem. Pharmacol., 38, 2859-2865 (1989). The following reagents were added to glass tubes in the order and at the final concentrations stated. 0.3 ml KH2 PO4 -KOH buffer, pH 7.4 (30 mM), 0.2 ml H2 O bidist., 0.2 ml 2-deoxy-D-ribose (2 mM), 0.2 ml FeCl3 .cndot.6 H2 O (0.1 mM), 0.1 ml anthracenone derivative (75 μM). Stock solutions of the compounds were made up fresh before use. Appropriate blanks and controls with the vehicle (acetonitrile) were conducted. The final reaction volumes were standardized to 1.0 ml. The reaction mixtures were incubated for 2 h at 37° C. in a shaking water bath. 1.0 ml of 2.8% (w/v) trichloroacetic acid and 1.0 ml of 1% (w/v in 0.05 N NaOH) 2-thiobarbituric acid (TBA) were added, and the samples were heated at 100° C. for 15 min and then cooled in an ice bath (5 min). Then 2.0 ml of the reaction mixtures were treated with 0.05 ml of 36% (w/v) HCl and 2.0 ml of 1-butanol and the mixtures were vigorously shaken in a vortex mixer (Heidolph) for 15 s. The organic layer was separated by centrifugation at 3000 rpm (15 min) and the absorbance at 532 nm was measured against butanol. […]
The biological assay methods were as follows: LDH release as described in Muller K, Huang H-S, Wiegrebe W, J. Med. Chem. 39, 3132-3138 (1996); bovine PMNL 5-LO assay as described in Muller K, Gurster D, Piwek S, Wiegrebe W, J. Med. Chem. 36, 4099-4107 (1993); and degradation of 2-deoxy-D-ribose as described in Muller K, Gurster D, Biochem. Pharmacol. 46, 1695-1704 (1993). […] Extracellular LDH activity was measured using the UV method with pyruvate and NADH and is expressly in mU/ml. […]

5-LO in bovine PMNL = biological target: T1, 5-LO in bovine PMNL (Bos taurus, UniProt F1MQ78); test: Bovine PMNL 5-lipoxygenase assay (inhibition of 5-HETE and LTB4 biosynthesis); assay type: cell-based; details: at 30 μM
T1 construct: endogenous in cells; host or cells: polymorphonuclear leukocytes isolated from bovine blood
T1 sequence (F1MQ78 1-674): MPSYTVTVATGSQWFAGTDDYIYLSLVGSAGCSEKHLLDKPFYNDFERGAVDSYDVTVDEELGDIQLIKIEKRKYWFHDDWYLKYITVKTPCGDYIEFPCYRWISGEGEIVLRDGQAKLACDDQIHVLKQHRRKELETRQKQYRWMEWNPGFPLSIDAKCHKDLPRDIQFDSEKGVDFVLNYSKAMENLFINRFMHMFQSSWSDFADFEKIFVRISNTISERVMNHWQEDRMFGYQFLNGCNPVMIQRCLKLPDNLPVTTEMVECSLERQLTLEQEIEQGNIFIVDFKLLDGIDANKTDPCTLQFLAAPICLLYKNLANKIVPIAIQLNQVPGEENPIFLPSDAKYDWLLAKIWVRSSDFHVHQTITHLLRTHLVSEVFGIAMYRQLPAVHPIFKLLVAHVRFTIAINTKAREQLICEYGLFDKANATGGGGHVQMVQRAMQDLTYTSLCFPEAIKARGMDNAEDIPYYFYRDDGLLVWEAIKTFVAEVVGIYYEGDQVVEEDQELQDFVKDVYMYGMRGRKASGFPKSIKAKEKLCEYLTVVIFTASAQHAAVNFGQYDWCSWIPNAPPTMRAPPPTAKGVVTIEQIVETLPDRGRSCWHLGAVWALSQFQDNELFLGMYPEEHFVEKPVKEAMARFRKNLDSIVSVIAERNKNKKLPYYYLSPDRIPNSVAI

[2] = Reducing activity toward DPPH; details: Table I (Addendum); equimolar amount of test compound
Method: This assay followed generally the procedures of Blois, M. S., "Antioxidant Determinations by the Use of a Stable Free Radical", Nature, 181, 1199-1200 (1958) and Kato, K. et al., "Studies on Scavengers of Active Oxygen Species. 1. Synthesis and Biological Activity of 2-O-Alkylascorbic Acids", J. Med. Chem., 31, 793-798 (1988). In time studies, 1 ml of test compound solution (10^-4 M) was added to 1 ml of DPPH solution (10^-4 M), each in acetone/PBS (1+1 V/V), and the reduction of DPPH was followed spectrophotometrically at 516 nm. Plots of the reciprocal of DPPH concentrations against time gave straight lines, and the second-orderrate constants were obtained from the slopes and are expressed as mean values (n=3-6). In the cases where DPPH was very fast approximate values are given and expressed as kDPPH >100 or kDPPH >>100M^-1s^-1.
Because a radical scavenging antioxidant reacts rapidly with the stable free radical 2,2-diphenyl-1-picrylhydrazyl (DPPH), Blois, M. S., "Antioxidant Determination by the Use of a Stable Free Radical", Nature, 181, 1199-1200 (1958); Kato, K. et al., "Studies on Scavengers of Active Oxygen Species. I. Synthesis and Biological Activity of 2-O-Alkylascorbic Acids", J. Med. Chem., 31, 793-798 (1988), the reactivities of the new compounds with DPPH were determined by decrease in absorbance at 516 nm.

skin = details: topical/therapeutic application; cited from earlier work

deoxyribose degradation [1]: 0.24 ± 0.03 μmol MDA/mmol
inhibition at 30 µM (5-LO in bovine PMNL; PMNL, Table I (Addendum), read-out: 5-LO percent inhibition (value in parentheses)): 38%
inhibition at 30 µM (5-LO in bovine PMNL; bovine PMNL, read-out: inhibition at 30 μM): 38%
SMILES: CCCC(=O)C1c2cccc(O)c2C(=O)c2c(O)cccc21 [Butantrone, 10-Butyryl-Dithranol]
kDPPH [2]: 7.0 ± 0.6 M⁻¹ s⁻¹
irritation, in words (skin): commonly elicits a widespread and delayed irritation effect
